Experimental data reported in PMC8557901 (Microbiology Spectrum, 2021).

Experiments:
[1] = test system: P. cynomolgi liver-stage parasites in simian primary hepatocytes; assay: In vitro liver-stage development, P. cynomolgi in simian primary hepatocytes; assay type: cell-based, Plasmodium cynomolgi
Description: (§1) Primary human hepatocytes were isolated from liver segments obtained from adult patients undergoing partial hepatectomy (Service de Chirurgie Digestive, Hépato-Bilio Pancréatique, Hôpital Pitié Salpêtrière, Paris, France). Primary simian hepatocytes were isolated from liver segments collected from healthy Macaca fascicularis monkeys from CEA, Fontenay aux Roses, France. All hepatocytes were obtained using collagenase perfusion as previously described ([40]). […] Primary murine hepatocytes were isolated from liver segments collected from BALB/c mice. Human and murine hepatocytes were used directly after their isolation. Cells were seeded in 96-well plates (Falcon; Becton Dickinson Labware Europe, France) coated with collagen I (BD Bioscience, USA) at a density of 80,000 cells per well. […] For human hepatocytes, the complete medium was supplemented with 2% dimethyl sulfoxide (DMSO; Sigma-Aldrich, USA) before infection to preserve their differentiation.
(§2) On the day of infection, 3 · 10^4 sporozoites of P. falciparum, P. yoelii, and P. cynomolgi were added to their respective host cell cultures (human, murine, and simian). The infected culture plates were centrifuged for 10 min at 900 × g, allowing fast parasite sedimentation, and further incubated with serial dilutions of M1. Culture medium containing the appropriate drug concentration was refreshed daily, and cells were fixed at 48 h postinfection (p.i.) for infections with P. yoelii, 6 days p.i. for P. falciparum, or 8 days p.i. for P. cynomolgi. For the in vitro sporozoite invasion experiments, P. falciparum sporozoites were preincubated with 1, 10, and 100 μM M1 for 1 h at room temperature before hepatocyte infections. Three hours later, after sporozoite penetration into hepatocytes, cultures were washed and then further incubated with or without the presence of the drug during 6 days. DMSO was used as a negative control.
(§3) The number, size, and shape of the parasites were determined using a CellInsight high-content screening platform equipped with Studio HCS software (ThermoFisher Scientific). […] Host cell and parasite nuclei were labeled with DAPI (4′,6-diamidino-2-phenylindole). […] The custom script used for counting and measuring parasites first required identification of the objects based on a fluorescence intensity threshold. The object identity was then further validated based on size and morphological (shape) criteria. The presence of DAPI-associated fluorescence in the selected objects allowed their final selection and the rejection of false positives. […] The parasitic size reduction was calculated on the average object area using the total surface area of each selected object (μm^2).

[2] = test system: P. falciparum mature gametocytes (stage V); assay: Exflagellation-blocking assay; assay type: cell-based, Plasmodium falciparum; conditions: 10 μM, 24 h preincubation of stage V gametocytes
Description: Exflagellation-blocking assays were performed according to published protocols ([48], [49]). Assays were performed using gametocyte cultures providing high-enough numbers of exflagellation centers for meaningful measurement (>30 centers of exflagellation in 50 microscope fields at 400× magnification). […] The 6-well plate was incubated at 37°C. After treatment with M1 during 2 h or 24 h, exflagellation was induced by decreasing the temperature to 25°C and replacing culture medium with AB serum. The numbers of exflagellation centers were recorded between 10 and 30 min after induction and compared to the numbers in the control (DMSO treatment). Activity was expressed as the percentage of exflagellation inhibition compared to the control.

[3] = test system: P. falciparum F32-ART5 quiescent parasites; assay: Quiescent-stage survival assay (QSA); assay type: cell-based, Plasmodium falciparum; conditions: artemisinin 3 μM 6 h then artemisinin + M1 2.5 μM 24 h versus artemisinin alone; 6-day threshold = active
Description: The Plasmodium falciparum artemisinin-resistant strain F32-ART5 and its twin artemisinin-sensitive line F32-TEM ([30], [31]) were cultivated at 37°C with 5% CO2 in human red blood cells (EFS [French Blood Bank]) diluted to 2% hematocrit in RPMI 1640 medium supplemented with 5% human serum (EFS) as previously reported ([47]).
Chemosensitivity evaluation of artemisinin-resistant parasites at the quiescent stage was performed on the F32-ART5 strain using the quiescent-stage survival assay (QSA) ([33]). D-Sorbitol-synchronized ring-stage parasites at 3% parasitemia (2% hematocrit) were first exposed to 3 μM artemisinin for 6 h to induce quiescence of artemisinin-resistant parasites. Then, quiescent parasites were exposed or not (as a control condition) to 2.5 μM M1 for 24 h. After drug exposure, parasite cultures were washed with RPMI 1640 medium and replaced in normal drug-free culture conditions. The time to parasite recrudescence was determined as the time required to reach initial parasitemia. […] In each experiment, results obtained with the condition “artemisinin 3 μM 6 h/artemisinin 3 μM 24 h” were compared to those obtained with the condition “artemisinin 3 μM 6 h/(artemisinin 3 μM + M1 2.5 μM) 24 h” in order to determine the delay in recrudescence time. […] Each experiment was carried out three times independently, and data statistically analyzed. […]

[4] = test system: P. yoelii in HepG2-CD81 cells; assay: Hepatic stage of P. yoelii in HepG2-CD81 cells; assay type: cell-based; conditions: Plasmodium yoelii; hepatic schizonts
Description: Hepatocytes were seeded into collagen-coated black 96-well plates and maintained at 37°C in 5% CO2 in complete medium. […] The infected culture plates were centrifuged for 10 min at 900 × g, allowing fast parasite sedimentation, and further incubated with serial dilutions of M1. […] DMSO was used as a negative control. The number, size, and shape of the parasites were determined using a CellInsight high-content screening platform equipped with Studio HCS software (ThermoFisher Scientific). The parasite immunostaining was done using an […]70 antibody raised in mice and a secondary anti-mouse antibody coupled to Alexa Fluor 488 ([43]). […] Thirty-seven images, representing more than 95% of the total bottom surface area of a culture well in 96-well plates, were captured for analysis. The custom script used for counting and measuring parasites first required identification of the objects based on a fluorescence intensity threshold. The object identity was then further validated based on size and morphological (shape) criteria. The presence of DAPI-associated fluorescence in the selected objects allowed their final selection and the rejection of false positives. […] The parasitic size reduction was calculated on the average object area using the total surface area of each selected object (μm^2).

[5] = test system: P. yoelii liver-stage parasites in murine primary hepatocytes; assay: In vitro liver-stage development, P. yoelii in murine primary hepatocytes; assay type: cell-based, Plasmodium yoelii
Description: P. yoelii 230-GFP-Luc sporozoites are mutant parasites expressing a green fluorescent protein (GFP)-luciferase cassette generated by the gene out marker out (GOMO) strategy ([39]).
as §1, §2, §3

Cc1ccc(-c2cc3nc(NC(C)(C)C)[nH]c(=O)c3s2)cc1 [Metabolite M1, 2-(tert-Butylamino)-6-(p-tolyl)thieno[3,2-d]pyrimidin-4(3H)-one]
concentration from which liver-stage development was fully inhibited ([1]; P. cynomolgi in simian hepatocytes): 14 µM | EC50 ([1]; Plasmodium cynomolgi, Hepatocyte, P. cynomolgi in simian primary hepatocytes (SH), mean ± SEM of triplicate experiments, read-out: EC50 against liver-stage parasites): 1500 ± 300 nM | activity on P. cynomolgi hypnozoites ([1]; all tested concentrations (0.1 to 50 μM)): not active | SI (selectivity index) ([1]; hepatocyte CC50/EC50, P. cynomolgi (SH)): >40 | Size reduction at 10 μM (%) ([1]; parasite (schizont) size, 10 μM, P. cynomolgi (SH)): 80% | mean percentage for male exflagellation [2]: 7.5% | median delay in recrudescence time [3]: 6 days | EC50 [4]: 0.067 µM | EC50 ([5]; Plasmodium yoelii, Hepatocyte, P. yoelii in murine primary hepatocytes (MH), mean ± SEM of triplicate experiments, read-out: EC50 against liver-stage parasites): 450 ± 100 nM | SI (selectivity index) ([5]; hepatocyte CC50/EC50, P. yoelii (MH)): >133 | Size reduction at 10 μM (%) ([5]; parasite (schizont) size, 10 μM, P. yoelii (MH)): 100%
